Reference: US10766928B2, “Targeted conformationally-constrained kinked endosomal disrupting peptides” (priority 2012, dated 2020)
≈ marks a conversion by molar mass, not a printed value. Read-outs that look alike come from different tables or passages of the source. Non-standard residues stand in square brackets, D forms with d. Residues, ends and D or L forms follow the SMILES beside them. *: point of attachment. Pentanoyl(5-NH-cholesteryl) = CC(C)CCC[C@@H](C)[C@H]1CC[C@H]2[C@@H]3CC=C4C[C@@H](NCCCCC(=O)*)CC[C@]4(C)[C@H]3CC[C@]12C; Cholesteryloxycarbonyl = CC(C)CCC[C@@H](C)[C@H]1CC[C@H]2[C@@H]3CC=C4C[C@@H](OC(=O)*)CC[C@]4(C)[C@H]3CC[C@]12C; Palmitoyl = CCCCCCCCCCCCCCCC(=O)*; PEG3 = NCCOCCOCCOCCC(=O)O; Pra = C#CC[C@H](N)C(=O)O; Aib = CC(C)(N)C(=O)O; Ahx = NCCCCCC(=O)O; Ava = NCCCCC(=O)O; βAla = NCCC(=O)O

Legend:
[1] = Thermodynamic solubility in PBS (pH 7.4); type: physicochemical
Excerpt: Values in parentheses represent 95% confidence intervals. N.D., not determined.
Measurements represent duplicate or more replicates, with active peptides subjected to multiple replicates. ND: not determined. The peptide was non-toxic and soluble in cell culture medium at this concentration.

Jurkat lymphocytes = tested on: Jurkat lymphocytes
Procedure: The effects of the compounds of the invention on human Juikat leukemia cells were evaluated using flow cytometry-based assays of potency, efficacy, and toxicity. […] Analysis of flow cytometry data by non-linear regression was used to determine IC50 values for potency with the efficacy expressed as a percentage. […] Dose-dependent effects on cellular viability after 48 h at 37° C. in culture were also measured by flow cytometry.
The # represents the compound number in accordance with Tables A, B, and C. Concentrations of compound stock solutions were determined by absorbance measurements at 280 nm. Efficacy was determined as % change in cellular fluorescence relative to the maximal response of Compound 1, defined as 100%. Potencies and efficacies in Jurkat lymphocytes were measured by flow cytometry after treatment of cells with the compounds listed and the fluorescent probe Compound 2 (2.5 μM) for 14 hours. Toxicity to this cell line was determined by flow cytometry analysis of light scattering and counterstaining with PI after treatment for 48 h at 37° C. in culture. […] N.D., not determined.

[2] = tested on: endosomes of Jurkat lymphocytes; assay: Endosome disruption in Jurkat lymphocytes: release of carboxyfluorescein from disulfide probe Compound 2, flow cytometry; details: for Efficacy (% of 1): % of the effect of compound 1, calculated span of dose-response curve, ± standard deviation; for Efficacy (% of 1) / Efficacy (% of max. 1): Jurkat; for Efficacy (% of max. 1): % change in cellular fluorescence relative to maximal response of Compound 1 (100%)
How it was run: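 Human Jurkat cells treated with compounds plus disulfide probe Compound 2 (2.5 μM) for 14 h at 37 °C. Cytoplasmic release of pH-sensitive fluorophore Compound 3 quantified by flow cytometry. IC50 by non-linear regression; efficacy as % fluorescence change relative to Compound 1 maximum (100%).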

[3] = phosphate buffered saline, pH 7.4, Table 3, PBS pH 7.4, 24 h at 22° C., read-out: Solubility
[4] = read-out: Toxicity, Table 3, IC50, Jurkat, 48 h at 37° C., footnote a: non-toxic and soluble in cell culture medium at this concentration
[5] = read-out: Potency, Table 2, EC50 ± standard deviation, Jurkat lymphocytes, disulfide-linked fluorescent probe (2.5 μM), 14 h
[6] = phosphate buffered saline, pH 7.4, Table 1, PBS pH 7.4, 24 hours at 22° C., ±S.D., read-out: Solubility (aq.)
[7] = read-out: Potency (EC50), Table 1, Jurkat lymphocytes, probe Compound 2 (2.5 μM), 14 hours, 95% confidence interval in neighbouring cell
[8] = read-out: Toxicity (IC50), Table 1, Jurkat lymphocytes, 48 h at 37° C.

| Compound | solubility thermodynamic at 24 h [1, 3] [µM] | IC50 (Jurkat lymphocytes; [4]) [µM] | Efficacy (% of 1) ([2]; Table 2, 14 h) [%] | EC50 [2, 5] [µM] | solubility thermodynamic at 24 h [1, 6] [µM] | IC50 (Jurkat lymphocytes; 48 h) [µM] | EC50 ([2]; 14 h) [µM] | Efficacy (% of max. 1) ([2]; Table 1, 14 hours) [%] | EC50 [2, 7] [µM] | other results |
| --- | --- | --- | --- | --- | --- | --- | --- | --- | --- | --- |
| CC(C)[C@H](NC(=O)[C@@H](NC(=O)[C@@H]1CCCN1C(=O)[C@@H]1CCCN1C(=O)[C@H](Cc1ccc(O)cc1)NC(=O)[C@H](Cc1c[nH]c2ccccc12)NC(=O)[C@H](Cc1ccc(O)cc1)NC(=O)[C@H](Cc1c[nH]c2ccccc12)NC(=O)[C@H](C)NC(=O)[C@H](Cc1ccc(O)cc1)NC(=O)[C@H](Cc1c[nH]c2ccccc12)NC(=O)[C@H](C)NC(=O)C(C)(C)NC(=O)C(C)(C)NC(=O)C(C)(C)NC(=O)C(C)(C)N)C(C)C)C(N)=O [Compound 81] (H-[Aib][Aib][Aib][Aib]AWYAWYWYPPVV-NH2) | 3 ± 1 (≈ 5.82 µg/mL) | > 8 | 83 ± 13 | 9 ± 6 |  |  |  |  |  |  |
| CC(C)CCC[C@@H](C)[C@H]1CC[C@H]2[C@@H]3CC=C4C[C@@H](NCCCCC(=O)N[C@@H](CCC(=O)O)C(=O)N[C@@H](CCC(=O)O)C(=O)NCCCCCC(=O)NCCCCCC(=O)N[C@@H](C)C(=O)N[C@@H](C)C(=O)N[C@@H](C)C(=O)N[C@@H](Cc5c[nH]c6ccccc56)C(=O)N[C@@H](Cc5c[nH]c6ccccc56)C(=O)N[C@@H](C)C(=O)N[C@@H](Cc5ccc(O)cc5)C(=O)N[C@@H](Cc5c[nH]c6ccccc56)C(=O)N5CCC[C@H]5C(=O)N5CCC[C@H]5C(=O)N[C@H](C(=O)N[C@@H](C)C(N)=O)C(C)C)CC[C@]4(C)[C@H]3CC[C@]12C [Compound 5, R = EEXXAAAWWAYWPPVA-CONH2] ({Pentanoyl(5-NH-cholesteryl)}-EE[Ahx][Ahx]AAAWWAYWPPVA-NH2) |  |  |  |  | 10 ± 1 (≈ 23.4 µg/mL) | 14 | 0.4 |  |  |  |
| CC(C)[C@H](NC(=O)[C@@H](NC(=O)[C@@H]1CCCN1C(=O)[C@@H]1CCCN1C(=O)[C@H](Cc1c[nH]c2ccccc12)NC(=O)[C@H](Cc1ccc(O)cc1)NC(=O)[C@H](C)NC(=O)[C@H](Cc1c[nH]c2ccccc12)NC(=O)[C@H](Cc1c[nH]c2ccccc12)NC(=O)C(C)(C)NC(=O)C(C)(C)NC(=O)C(C)(C)NC(=O)C(C)(C)N)C(C)C)C(N)=O [Compound 44] (H-[Aib][Aib][Aib][Aib]WWAYWPPVV-NH2) | 22 ± 1 (≈ 33.9 µg/mL) | > 16 | 98 ± 2 | 5 ± 1 | 22 ± 1 (≈ 33.9 µg/mL) |  |  | 97 | 5.2 |  |
| C#CC[C@H](NC(=O)[C@H](CCC(=O)O)NC(=O)[C@H](CCC(=O)O)NC(=O)CCNC(=O)CCNC(=O)O[C@H]1CC[C@@]2(C)C(=CC[C@H]3[C@@H]4CC[C@H]([C@H](C)CCCC(C)C)[C@@]4(C)CC[C@@H]32)C1)C(=O)NCCOCCOCCOCCC(=O)NCCOCCOCCOCCC(=O)NC(C)(C)C(=O)NC(C)(C)C(=O)NC(C)(C)C(=O)NC(C)(C)C(=O)N[C@@H](Cc1c[nH]c2ccccc12)C(=O)N[C@@H](Cc1c[nH]c2ccccc12)C(=O)N[C@@H](C)C(=O)N[C@@H](Cc1ccc(O)cc1)C(=O)N[C@@H](Cc1ccc(O)cc1)C(=O)N1CCC[C@H]1C(=O)N1CCC[C@H]1C(=O)N[C@H](C(=O)N[C@H](C(N)=O)C(C)C)C(C)C [Compound 37, R″ = BEEZOOUUUUWWAYYPPVV-CONH2] ({Cholesteryloxycarbonyl-βAla-βAla}-EE[Pra][PEG3][PEG3][Aib][Aib][Aib][Aib]WWAYYPPVV-NH2) |  |  |  |  | 348 ± 13 (≈ 986 µg/mL) | 3 | 0.04 |  |  | IC50 ([2]; 14 h): 0.04 µM |
| CCCCCCCCCCCCCCCC(=O)NCCCCC(=O)NCCC(=O)N[C@@H](CCC(=O)O)C(=O)N[C@@H](CCC(=O)O)C(=O)NCCOCCOCCOCCC(=O)NCCOCCOCCOCCC(=O)NC(C)(C)C(=O)NC(C)(C)C(=O)NC(C)(C)C(=O)NC(C)(C)C(=O)N[C@@H](Cc1c[nH]c2ccccc12)C(=O)N[C@@H](Cc1c[nH]c2ccccc12)C(=O)N[C@@H](C)C(=O)N[C@@H](Cc1ccc(O)cc1)C(=O)N[C@@H](Cc1c[nH]c2ccccc12)C(=O)N1CCC[C@H]1C(=O)N1CCC[C@H]1C(=O)N[C@H](C(=O)N[C@@H](C)C(N)=O)C(C)C [Compound 32, R′ - BEEOOUUUUWWAYWPPVA-CONH2] ({Palmitoyl-Ava-βAla}-EE[PEG3][PEG3][Aib][Aib][Aib][Aib]WWAYWPPVA-NH2) |  |  |  |  |  |  |  | 121 | 0.7 | Solubility in PBS relative to Compound 26 ([1]; PBS): sixtyfold more soluble; solubility at 24 h ([1]; phosphate buffered saline, Table 1, PBS pH 7.4, 24 hours at 22° C., ±S.D., read-out: Solubility (aq.)): 856 µM (≈ 2220 µg/mL); IC50 (Jurkat lymphocytes; [8]): 16 µM; Potency relative to Compound 26 ([2]; palmitic acid derivative vs cholesterylamine): sevenfold less potent |
| CC(=O)NC(C)(C)C(=O)NC(C)(C)C(=O)NC(C)(C)C(=O)NC(C)(C)C(=O)N[C@@H](Cc1c[nH]c2ccccc12)C(=O)N[C@@H](Cc1c[nH]c2ccccc12)C(=O)N[C@@H](C)C(=O)N[C@@H](Cc1ccc(O)cc1)C(=O)N[C@@H](Cc1c[nH]c2ccccc12)C(=O)N1CCC[C@H]1C(=O)N1CCC[C@H]1C(=O)N[C@H](C(=O)N[C@@H](C)C(N)=O)C(C)C [Compound 42] (Ac-[Aib][Aib][Aib][Aib]WWAYWPPVA-NH2) |  |  |  |  | 11 ± 1 (≈ 17.1 µg/mL) |  |  | 85 | 5.3 | IC50 (Jurkat lymphocytes; [8]): > 100 µM |
| CC(C)[C@H](NC(=O)[C@@H](NC(=O)[C@@H]1CCCN1C(=O)[C@@H]1CCCN1C(=O)[C@H](Cc1ccc(O)cc1)NC(=O)[C@H](Cc1c[nH]c2ccccc12)NC(=O)[C@H](C)NC(=O)[C@H](Cc1ccc(O)cc1)NC(=O)[C@H](Cc1c[nH]c2ccccc12)NC(=O)[C@H](C)NC(=O)[C@H](Cc1ccc(O)cc1)NC(=O)[C@H](Cc1c[nH]c2ccccc12)NC(=O)C(C)(C)NC(=O)C(C)(C)NC(=O)C(C)(C)NC(=O)C(C)(C)N)C(C)C)C(N)=O [Compound 80] (H-[Aib][Aib][Aib][Aib]WYAWYAWYPPVV-NH2) | 5 ± 2 (≈ 9.7 µg/mL) | > 16 | 113 ± 4 | 0.28 ± 0.1 |  |  |  |  |  |  |
| C#CC[C@H](NC(=O)[C@H](CCC(=O)O)NC(=O)[C@H](CCC(=O)O)NC(=O)CCNC(=O)CCNC(=O)O[C@H]1CC[C@@]2(C)C(=CC[C@H]3[C@@H]4CC[C@H]([C@H](C)CCCC(C)C)[C@@]4(C)CC[C@@H]32)C1)C(=O)NCCOCCOCCOCCC(=O)NCCOCCOCCOCCC(=O)NC(C)(C)C(=O)NC(C)(C)C(=O)NC(C)(C)C(=O)NC(C)(C)C(=O)N[C@@H](Cc1c[nH]c2ccccc12)C(=O)N[C@@H](Cc1c[nH]c2ccccc12)C(=O)N[C@@H](C)C(=O)N[C@@H](Cc1ccc(O)cc1)C(=O)N[C@@H](Cc1c[nH]c2ccccc12)C(=O)N1CCC[C@H]1C(=O)N1CCC[C@H]1C(=O)N[C@H](C(=O)N[C@@H](C)C(N)=O)C(C)C [Compound 35, R″ = BEEZOOUUUUWWAYWPPVA-CONH2] ({Cholesteryloxycarbonyl-βAla-βAla}-EE[Pra][PEG3][PEG3][Aib][Aib][Aib][Aib]WWAYWPPVA-NH2) |  |  |  |  | 649 ± 11 (≈ 1840 µg/mL) | 13 | 0.11 |  |  | Difference in solubility relative to Compound 31 ([1]; PBS): greater than hundredfold |
| CC(=O)NC(C)(C)C(=O)NC(C)(C)C(=O)NC(C)(C)C(=O)NC(C)(C)C(=O)N[C@@H](Cc1c[nH]c2ccccc12)C(=O)N[C@@H](Cc1c[nH]c2ccccc12)C(=O)N[C@@H](C)C(=O)N[C@@H](Cc1c[nH]c2ccccc12)C(=O)N[C@@H](Cc1ccc(O)cc1)C(=O)N1CCC[C@H]1C(=O)N1CCC[C@H]1C(=O)N[C@H](C(=O)N[C@H](C(N)=O)C(C)C)C(C)C [Compound 78] (Ac-[Aib][Aib][Aib][Aib]WWAWYPPVV-NH2) | 5 ± 1 (≈ 7.92 µg/mL) | > 16 | 70 ± 2 | 2.3 ± 0.3 |  |  |  |  |  |  |
| CC(=O)NC(C)(C)C(=O)NC(C)(C)C(=O)NC(C)(C)C(=O)NC(C)(C)C(=O)N[C@@H](Cc1c[nH]c2ccccc12)C(=O)N[C@@H](Cc1ccc(O)cc1)C(=O)N[C@@H](C)C(=O)N[C@@H](Cc1c[nH]c2ccccc12)C(=O)N[C@@H](Cc1ccc(O)cc1)C(=O)N[C@@H](C)C(=O)N[C@@H](Cc1c[nH]c2ccccc12)C(=O)N[C@@H](Cc1ccc(O)cc1)C(=O)N1CCC[C@H]1C(=O)N1CCC[C@H]1C(=O)N[C@H](C(=O)N[C@H](C(N)=O)C(C)C)C(C)C [Compound 82] (Ac-[Aib][Aib][Aib][Aib]WYAWYAWYPPVV-NH2) | 2 ± 1 (≈ 3.96 µg/mL) | > 16 | 85 ± 7 | 0.8 ± 0.2 |  |  |  |  |  |  |
